Assay [1] has as its target rat α7 nAChR (Rattus norvegicus, UniProt Q05941). The experiment in a line: cell-based. The format is binding.
Experimental: Binding studies with rat α7 nAChR were done using the rat pheochromocytoma cell line PC12 that endogenously expresses the α7 nAChR (American Type Culture Collection, Manassas, VA). PC12 cells were maintained in Ham F-12 nutrient mixture, containing 15% horse serum, 2.5% fetal bovine serum (FBS), 2 mM L-glutamine, 1.5 g/L NaHCO3, 100 units of penicillin, and 100 μg streptomycin.
For the binding assay, PC12 cells were resuspended in binding buffer (phosphate buffered saline with calcium and magnesium, containing 1% FBS and 0.02% NaN3) at 1.5 to 2.7 × 10^6 cells per ml and 55 μl (0.8–1.5 × 10^5 cells per well) was added to a 96-well, v-bottom plate. […]
Phycoerythrin-labeled streptavidin (streptavidin-PE) (Becton-Dickinson, Franklin Lakes, NJ) was diluted in binding buffer and 50 μl was added to the cells (excluding the cell control) at a 1.0 μg/ml final concentration. […] BTx binding was quantified by fluorescence-activated cell sorting (FACS) analysis. For each concentration of test compound, the displacement of BTx from the α7 nAChR was quantified by measuring the intensity of the fluorescent signal. […] Ki values were calculated from IC50 values using the Cheng-Prusoff equation: Ki=IC50/1+[BTx]/KD
For assay [2], the target named is T1, α4β2 nAChR (Rattus norvegicus, UniProt P09483+P12390).
T1 construct: tissue Cerep; host or cells: rat brain membranes
Kind of assay: cytisine binding to rat brain membranes. Particulars: read-out: Ki, α4β2nAChR binding affinity. As to the method:
Broad selectivity was assessed at Cerep (Celle l’ Evescault, France), as described in the Cerep catalog, though the determination of the effect of PMP-311 and PMP-072 in in vitro radioligand receptor binding assays with 52 different receptors, channels, and transporters. The specific ligand binding to the receptors is defined as the difference between the total binding, and the nonspecific binding determined in the presence of an excess of unlabelled ligand. The results are expressed as a percent of control specific binding and as the mean percent inhibition of control specific binding obtained in the presence of 10 μM PMP-311 and PMP-072. Individual and mean values are presented in the results section. The IC50 values (concentration causing a half-maximal inhibition of control specific binding) and Hill coefficients (nH) were determined by non-linear regression as described above.

Assay [3] has as its target T2, human α7 nAChR (Homo sapiens, UniProt P36544).
T2 construct: expressed in transfected cells; host or cells: Xenopus laevis oocytes injected with cRNA; clones from Dr. Jon Lindstrom (α7) and Dr. Millet Treinin (RIC-3)
The experiment in a line: voltage-clamp electrophysiology in Xenopus oocytes. It is filed as biochemical. The settings on record: for agonist activity at α7 nAChR ion channel: Xenopus oocyte membrane current, control conditions. As to the method:
(§1) Human nAChR receptor clones were obtained from Dr. Jon Lindstrom (University of Pennsylvania, Philadelphia, PA). The RIC-3 clone was obtained from Dr. Millet Treinin (Hebrew University, Jerusalem, Israel). Subsequent to linearization and purification of cloned cDNAs, RNA transcripts were prepared in vitro using the appropriate mMessage Machine kit from Ambion Inc. (Austin, TX).
The preparation of Xenopus laevis oocytes for RNA expression was conducted as previously described. Stage 5 oocytes were isolated and injected with […] (5–20 ng) of each subunit cRNAs. Recordings were conducted 2–5 days after injection. RNA coding for human α7 nAChR was routinely co-injected with the cDNA for human RIC-3, an accessory protein that improves and accelerates α7 nAChR expression without affecting the pharmacological properties of the receptors.
Experiments were conducted using OpusXpress6000A (Molecular Devices, Union City, CA) as described before. ACh applications were 12 seconds in duration.
Each oocyte received two initial control applications of 300 μM ACh, followed by the experimental drug application, and subsequent control application of 300 μM ACh, unless otherwise indicated. Responses to experimental drug applications were determined relative to the preceding ACh control responses in order to normalize the data, compensating for the varying levels of channel expression among the oocytes. Responses for α7 nAChR were calculated as net charge, since peak currents inaccurately report the agonist concentration dependence of α7 nAChR-mediated responses. For experiments measuring the effects of ACh and the experimental compounds on allosterically modulated receptors, following the acquisition of baseline responses, cells were given a 60 s application of 300 μM PNU-120596. […] For all experiments, means and standard error of the mean (SEM) were calculated from the normalized responses of at least four oocytes for each experimental concentration, plotted using Kaleidagraph 3.52 (Synergy Software, Reading, PA), and curves were generated from the Hill equation: Response=IMax[agonist]^n/[agonist]^n+(EC50)^n where Imax denotes the maximal response for a particular agonist/subunit combination, and n represents the Hill coefficient. Imax, n, and the EC50 were all unconstrained for the fitting procedures except in the case of the ACh concentration-response curves.

The target of assay [4] is T3, α4β2 nAChR (Homo sapiens, UniProt P17787+P43681).
T3 construct: expressed in transfected cells; host or cells: Xenopus laevis oocytes injected with subunit cRNAs; clones from Dr. Jon Lindstrom
T3 sequence (P43681 29-627 limits assumed): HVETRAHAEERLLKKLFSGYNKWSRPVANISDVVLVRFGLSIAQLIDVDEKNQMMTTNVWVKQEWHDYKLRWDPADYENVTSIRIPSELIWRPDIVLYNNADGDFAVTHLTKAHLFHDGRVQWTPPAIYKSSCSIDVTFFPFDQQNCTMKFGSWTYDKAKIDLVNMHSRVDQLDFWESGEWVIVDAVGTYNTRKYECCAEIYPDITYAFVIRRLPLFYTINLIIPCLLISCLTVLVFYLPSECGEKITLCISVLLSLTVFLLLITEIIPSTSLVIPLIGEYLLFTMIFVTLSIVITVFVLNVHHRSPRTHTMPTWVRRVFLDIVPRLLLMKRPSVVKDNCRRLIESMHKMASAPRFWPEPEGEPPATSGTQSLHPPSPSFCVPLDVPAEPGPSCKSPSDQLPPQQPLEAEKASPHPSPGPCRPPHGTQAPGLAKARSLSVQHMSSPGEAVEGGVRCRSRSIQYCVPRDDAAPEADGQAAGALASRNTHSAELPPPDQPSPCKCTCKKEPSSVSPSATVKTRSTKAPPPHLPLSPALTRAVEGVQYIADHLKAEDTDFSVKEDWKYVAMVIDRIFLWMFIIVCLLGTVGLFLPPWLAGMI
T3 sequence (P17787 26-502): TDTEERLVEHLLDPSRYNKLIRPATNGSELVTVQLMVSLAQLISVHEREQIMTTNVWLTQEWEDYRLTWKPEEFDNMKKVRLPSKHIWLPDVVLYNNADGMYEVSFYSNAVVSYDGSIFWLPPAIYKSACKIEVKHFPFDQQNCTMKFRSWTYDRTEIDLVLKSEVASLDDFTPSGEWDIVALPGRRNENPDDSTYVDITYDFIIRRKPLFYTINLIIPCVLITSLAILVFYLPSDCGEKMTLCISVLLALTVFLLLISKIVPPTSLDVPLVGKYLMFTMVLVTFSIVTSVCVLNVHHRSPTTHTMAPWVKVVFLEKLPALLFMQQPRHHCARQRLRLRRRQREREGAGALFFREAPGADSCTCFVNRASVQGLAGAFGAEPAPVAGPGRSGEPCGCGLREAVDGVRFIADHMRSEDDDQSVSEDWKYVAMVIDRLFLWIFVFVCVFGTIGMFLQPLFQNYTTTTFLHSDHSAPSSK
Kind of assay: ion channel assay on α4β2 nAChR in Xenopus oocytes. The format is biochemical. Particulars: data not shown. The method, then: as §1
The preparation of Xenopus laevis oocytes for RNA expression was conducted as previously described. Stage 5 oocytes were isolated and injected with […] (5–20 ng) of each subunit cRNAs. Recordings were conducted 2–5 days after injection. […]
Each oocyte received two initial control applications of 300 μM ACh, followed by the experimental drug application, and subsequent control application of 300 μM ACh, unless otherwise indicated. Responses to experimental drug applications were determined relative to the preceding ACh control responses in order to normalize the data, compensating for the varying levels of channel expression among the oocytes. Responses for α7 nAChR were calculated as net charge, since peak currents inaccurately report the agonist concentration dependence of α7 nAChR-mediated responses. […]

For assay [5], the system named is T4, human α7 nAChR primed with PNU-120596.
T4 construct: expressed in transfected cells; host or cells: Xenopus laevis oocytes injected with cRNA; clones from Dr. Jon Lindstrom (α7) and Dr. Millet Treinin (RIC-3)
The experiment in a line: electrophysiology of oocytes primed with PNU-120596. It is filed as biochemical. The settings on record: after 60 s priming with 300 μM PNU-120596; PMP-311 1 μM, PMP-072 10 μM, MLA 10 μM. The method, then: Each oocyte received two initial control applications of 300 μM ACh, followed by the experimental drug application, and subsequent control application of 300 μM ACh, unless otherwise indicated. Responses to experimental drug applications were determined relative to the preceding ACh control responses in order to normalize the data, compensating for the varying levels of channel expression among the oocytes. Responses for α7 nAChR were calculated as net charge, since peak currents inaccurately report the agonist concentration dependence of α7 nAChR-mediated responses. […] Imax, n, and the EC50 were all unconstrained for the fitting procedures except in the case of the ACh concentration-response curves.

Read-outs that look alike come from different tables or passages of the source.

T1 sequence (P09483 31-630): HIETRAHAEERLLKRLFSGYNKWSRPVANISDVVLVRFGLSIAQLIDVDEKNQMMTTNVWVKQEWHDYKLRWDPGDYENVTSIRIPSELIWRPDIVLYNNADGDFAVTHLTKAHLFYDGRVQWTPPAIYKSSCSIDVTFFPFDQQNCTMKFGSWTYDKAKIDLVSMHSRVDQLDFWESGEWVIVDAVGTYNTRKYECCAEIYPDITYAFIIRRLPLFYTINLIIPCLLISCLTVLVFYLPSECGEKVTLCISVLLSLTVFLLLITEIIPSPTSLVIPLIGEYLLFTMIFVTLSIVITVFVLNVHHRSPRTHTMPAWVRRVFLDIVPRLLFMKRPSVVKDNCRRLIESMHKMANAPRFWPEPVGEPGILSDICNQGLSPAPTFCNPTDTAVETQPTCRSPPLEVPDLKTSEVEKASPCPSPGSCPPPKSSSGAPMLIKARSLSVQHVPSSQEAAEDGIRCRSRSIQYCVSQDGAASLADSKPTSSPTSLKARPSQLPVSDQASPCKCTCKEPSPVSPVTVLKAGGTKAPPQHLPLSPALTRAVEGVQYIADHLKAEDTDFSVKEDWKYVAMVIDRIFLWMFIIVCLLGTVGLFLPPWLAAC
T1 sequence (P12390 25-500): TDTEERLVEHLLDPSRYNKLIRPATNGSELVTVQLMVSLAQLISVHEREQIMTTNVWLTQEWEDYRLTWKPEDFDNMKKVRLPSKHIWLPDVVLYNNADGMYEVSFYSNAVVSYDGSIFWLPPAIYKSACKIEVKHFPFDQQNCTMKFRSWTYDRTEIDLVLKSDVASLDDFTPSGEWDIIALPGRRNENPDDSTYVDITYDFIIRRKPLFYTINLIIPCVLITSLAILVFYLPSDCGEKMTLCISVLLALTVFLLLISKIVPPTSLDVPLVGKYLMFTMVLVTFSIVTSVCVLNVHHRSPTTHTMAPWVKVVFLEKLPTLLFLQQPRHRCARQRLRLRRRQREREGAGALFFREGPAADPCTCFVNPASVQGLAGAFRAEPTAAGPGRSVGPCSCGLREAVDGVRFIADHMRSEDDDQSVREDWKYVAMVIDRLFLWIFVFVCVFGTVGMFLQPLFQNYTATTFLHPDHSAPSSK
T2 sequence (P36544 23-502): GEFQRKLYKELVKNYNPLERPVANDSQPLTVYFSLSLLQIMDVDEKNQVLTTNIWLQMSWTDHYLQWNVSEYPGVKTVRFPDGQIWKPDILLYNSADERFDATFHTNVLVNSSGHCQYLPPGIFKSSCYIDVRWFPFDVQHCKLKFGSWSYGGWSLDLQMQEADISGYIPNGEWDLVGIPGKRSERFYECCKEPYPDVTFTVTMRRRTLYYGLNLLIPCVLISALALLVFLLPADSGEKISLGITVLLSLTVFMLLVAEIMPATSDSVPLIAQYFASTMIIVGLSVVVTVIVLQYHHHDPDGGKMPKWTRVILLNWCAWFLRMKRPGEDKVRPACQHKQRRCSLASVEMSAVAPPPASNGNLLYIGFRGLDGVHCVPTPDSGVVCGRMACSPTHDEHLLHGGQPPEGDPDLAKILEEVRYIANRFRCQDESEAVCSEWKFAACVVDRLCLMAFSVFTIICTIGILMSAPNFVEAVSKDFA
Sequence of rat α7 nAChR (Q05941 23-502): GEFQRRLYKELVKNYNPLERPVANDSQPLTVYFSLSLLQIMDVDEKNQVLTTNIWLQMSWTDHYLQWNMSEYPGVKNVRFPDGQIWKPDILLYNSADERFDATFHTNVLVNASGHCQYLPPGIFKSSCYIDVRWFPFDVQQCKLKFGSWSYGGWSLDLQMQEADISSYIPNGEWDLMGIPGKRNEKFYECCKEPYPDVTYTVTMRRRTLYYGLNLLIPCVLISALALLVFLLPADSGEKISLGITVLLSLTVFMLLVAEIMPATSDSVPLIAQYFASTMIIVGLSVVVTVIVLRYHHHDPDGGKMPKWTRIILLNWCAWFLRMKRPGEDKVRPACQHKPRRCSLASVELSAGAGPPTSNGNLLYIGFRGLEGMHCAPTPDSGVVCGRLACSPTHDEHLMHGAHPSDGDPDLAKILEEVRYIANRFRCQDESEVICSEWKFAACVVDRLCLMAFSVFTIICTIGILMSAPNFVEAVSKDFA

One may read the Ki as the dissociation constant of the complex between target and ligand, obtained from inhibition or displacement. As a reminder, the EC50 is the midpoint of the concentration-response curve. For orientation: IC50 means the concentration needed to halve the response being measured. Take `c1cncc(OC[C@@H]2CNCCN2c2nc3ncccc3o2)c1` [PMP-311, (S)-2-(2-((Pyridin-3-yloxy)methyl)piperazin-1-yl)oxazolo[4,5-b]pyridine]: the Ki in assay [1] is 0.9 ± 0.2 nM; in assay [2], 30 nM. Moreover, the “agonist activity at α7 nAChR ion channel” value in assay [3] is reported as “elicited a typical inward current”. Also, in assay [3] (Xenopus oocytes, read-out: EC50 of α7 nAChR activation), the EC50 was roughly 200 nM. Further, the Emax in assay [3] (net charge, normalized to 300 μM ACh, read-out: maximum response compared to ACh) was roughly 85%. Moreover, the IC50 was roughly 20 nM in assay [4] (read-out: IC50, antagonist of α4β2 nAChR) and less than 1000 nM in assay [4] (ion channel assay, read-out: IC50, inhibition of α4β2 nAChR).
With `COc1ccc(NC(=O)N2CCNC[C@@H]2COc2cccnc2)cc1` [PMP-072, (R)-N-(4-methoxyphenyl)-2-((pyridin-3-yloxy)methyl)piperazine-1-carboxamide], the Ki was 6.9 ± 1.4 nM in assay [1] and greater than 100000 nM in assay [2]. Further, in assay [3], the “agonist activity at α7 nAChR ion channel” value is recorded as “did not appear to be an agonist”. In addition, in assay [3] (co-applied with 60 μM ACh, read-out: IC50, antagonism of ACh-stimulated α7 nAChR channel activity), the IC50 fell in the range of 20 to 50 nM. Further, the “ion channel response of PNU-120596 primed cells” value in assay [5] is “able to activate large ion channel currents”.

The values are drawn from publication PMC4305287, “Two Novel α7 Nicotinic Acetylcholine Receptor Ligands: In Vitro Properties and Their Efficacy in Collagen-Induced Arthritis in Mice” (PLoS ONE, 2015).
